The results in this text go back to PubChem BioAssay AID1996.

≈ marks a conversion by molar mass, not a printed value. Some results are limits rather than exact numbers.

The conditions of this series: buffer; pH 7.4; 200.0 µM.
Take `CS(=O)(=O)N1CCCC(C(=O)Nc2ccccc2F)C1` (stereo not drawn): the kinetic solubility is > 45.1 µg/mL.
The value for `COc1ccc(CCNC(=O)c2ccccc2C(=O)NCCc2ccc(OC)cc2)cc1` was 2.2 µg/mL (≈ 5.09 µM); that for `CC(C)CNC(=O)CN1C(=O)NC2(CCc3ccccc32)C1=O` (stereo not drawn) was > 47.3 µg/mL; that for `CN(CC(=O)Nc1cccc2ccccc12)C(=O)c1ccc(NC(=O)CC#N)cc1` was > 60.1 µg/mL.
For the molecule `CCOc1ccccc1N=Cc1c(O)c2ccccc2oc1=O`, the solubility (kinetic) was < 0.7 µg/mL.
To `COc1ccc(C(=O)OCC(=O)NCc2cccs2)c(OC)c1OC` belongs > 54.8 µg/mL.
The value for `COc1ccc(-c2nc3ccccc3nc2-c2ccccc2)cc1OC` was 11 µg/mL (≈ 32.1 µM); that for `Cc1cccc([N+](=O)[O-])c1NC(=O)COC(=O)C1CCCO1` (stereo not drawn) was > 46.2 µg/mL; that for `COc1ccc(NCc2ccsc2)cc1` was 31.4 µg/mL (≈ 143 µM).
To `COc1ccc(C2(CNC(=O)c3ccc(N)cc3)CCCC2)cc1` belongs 26.7 µg/mL (≈ 82.3 µM).
Turning to `NC(=O)C1CCN(CC(O)CSc2ccc(F)cc2)CC1` (stereo not drawn), the solubility (kinetic) came to 37.3 µg/mL (≈ 119 µM).
To `Cc1ccc(C(=O)OCC(=O)NC(=O)Cc2ccccc2)c(O)c1` belongs 12 µg/mL (≈ 36.7 µM).
To `Cc1ccc(NC(=O)c2cc3ccccc3oc2=N)cc1` belongs < 0.3 µg/mL; to `Cl.NCC1CC2c3ccccc3C1c1ccccc12` (stereo not drawn), > 40.8 µg/mL; to `COc1ccc2oc(=O)c(C(=O)Nc3ccccc3C)cc2c1`, 2.3 µg/mL (≈ 7.44 µM).
To `CCn1c(SCC(=O)Nc2nccc(C)n2)nc2ccccc21` belongs > 49.1 µg/mL; to `Cc1ccc(C(=O)NCc2ccc3c(c2)OCO3)cc1Cl`, < 0.7 µg/mL.
Regarding `Cn1cc(C(C[N+](=O)[O-])c2ccccc2)c2ccccc21` (stereo not drawn), the kinetic solubility was 2.6 µg/mL (≈ 9.27 µM).
With `O=C(COC(=O)c1ccccc1O)NC12CC3CC(CC(C3)C1)C2`, the kinetic solubility was determined as 14.5 µg/mL (≈ 44 µM).
The value for `CCCc1cc(NCCCO)n2c(nc3ccccc32)c1C#N` was 3.3 µg/mL (≈ 10.7 µM); that for `C=CCNc1nc(C(=O)OC(C)C(=O)c2ccc(C)cc2)cs1` (stereo not drawn) was 8.8 µg/mL (≈ 26.6 µM); that for `CCCc1cnc(N2CCN(S(=O)(=O)c3cccs3)CC2)nc1` was < 0.2 µg/mL.
With `Nc1ccc(S(=O)(=O)N2CCCC2)cc1Cl`, the kinetic solubility is > 39.1 µg/mL.
To `CCC(C)NC(=O)CN1C(=O)C(CC)Sc2ccccc21` (stereo not drawn) belongs > 46 µg/mL; to `CC(=O)N/C(=N/c1nc(C)cc(C)n1)Nc1cccc(C)c1`, 22.2 µg/mL (≈ 74.7 µM); to `Cc1ccccc1NC(=S)NC(=O)/C=C/c1ccco1`, 38.3 µg/mL (≈ 134 µM).
To `O=C(CCCc1ccccc1)Nc1ccccn1` belongs > 36 µg/mL; to `Cc1cc(=O)[nH]c2c(C)cc(S(=O)(=O)N3CCOCC3)cc12`, 17.3 µg/mL (≈ 53.7 µM); to `CCCNC(=O)COc1ncnc2sccc12`, > 37.7 µg/mL.
For `Nc1nccnc1C(=O)OCC(=O)NNC(=O)c1ccccc1`, the solubility (kinetic) is > 47.3 µg/mL.
To `C=CCN=C1SC(C)(C)C(=O)N1S(=O)(=O)c1ccc(C)cc1` belongs 45.6 µg/mL (≈ 135 µM); to `O=C(NC(=S)Nc1ccc(F)c(Cl)c1)C1CC1`, 2.3 µg/mL (≈ 8.43 µM).
`CCCCC1C2C(=O)N(c3ccc(C)cc3)C(=O)C2ON1c1ccccc1` (stereo not drawn) showed a solubility (kinetic) of 46.2 µg/mL (≈ 127 µM).
Regarding `COc1ccc(Cl)cc1C(=O)NC1=NCCS1`, the solubility (kinetic) was 38.6 µg/mL (≈ 143 µM).
To `Nc1nc(Nc2cccc(Cl)c2)nc(NCc2ccco2)c1[N+](=O)[O-]` belongs 3 µg/mL (≈ 8.32 µM); to `COc1cccc(NC(=O)CN(C)CC(=O)NCc2ccc(F)cc2)c1`, > 53.9 µg/mL; to `CC(Sc1ccc(S(=O)(=O)N2CCOCC2)cn1)c1ccccc1Cl` (stereo not drawn), 5.9 µg/mL (≈ 14.8 µM).
The value for `COc1ccc(C(=O)O)cc1NCc1cccnc1` was 36.8 µg/mL (≈ 142 µM); that for `CC(C)CCN(CCC(C)C)C(=O)Cc1c(O)c2ccccc2[nH]c1=O` was 2.7 µg/mL (≈ 7.53 µM).
`CCOc1ccc(NS(=O)(=O)c2ccc3[nH]c(=O)[nH]c3c2)cc1` showed a solubility (kinetic) of 2 µg/mL (≈ 6 µM).
The molecule `Cc1ccc(S(=O)(=O)N(C)c2ccc(OCC(=O)OCc3ccc(C#N)cc3)cc2)cc1` gave a kinetic solubility of 8.4 µg/mL (≈ 18.6 µM).
Regarding `COc1cccc(NC(=O)CN(C)CC(=O)Nc2ccc3c(c2)OCO3)c1`, the kinetic solubility is > 55.7 µg/mL.
In turn, `Cc1cccc(NC(=O)Cc2ccc(Br)cc2)n1` came in with a kinetic solubility of 38.6 µg/mL (≈ 126 µM).
To `Cc1cccc(NC(=O)Nc2ccccn2)c1C` belongs 1.2 µg/mL (≈ 4.97 µM).
To `O=C(NC1CCCc2ccccc21)c1ccc([N+](=O)[O-])cc1` (stereo not drawn) belongs 3.2 µg/mL (≈ 10.8 µM).
The value for `CCN(CC)c1ccc(C(=O)N/N=C(\C)c2cccnc2)cc1` was > 46.6 µg/mL.
`O=Cc1ccc(OCC(=O)NCC2CCCO2)cc1` (stereo not drawn): the kinetic solubility was found to be 36.4 µg/mL (≈ 138 µM).
The value for `O=C(NCC1CCN(S(=O)(=O)c2ccccc2)CC1)Nc1ccccc1` was 3.6 µg/mL (≈ 9.64 µM); that for `NC(=O)COc1ccc2oc(=O)cc(-c3cc4ccccc4o3)c2c1` was 1 µg/mL (≈ 2.98 µM); that for `CSCCC(NC(=O)c1ccco1)C(=O)NC1CCC(C)CC1` (stereo not drawn) was > 50.8 µg/mL.
To `CC(Cc1cccs1)NCc1ccccc1` (stereo not drawn) belongs 22.3 µg/mL (≈ 96.4 µM); to `Cc1ccc(Nc2nc(-c3ccc(F)cc3)cs2)nc1`, < 0.2 µg/mL; to `CC(NC(=O)C1CCN(C(=O)c2ccc(F)cc2)CC1)c1ccc(S(N)(=O)=O)cc1` (stereo not drawn), > 65 µg/mL.
To `O=C(COC(=O)c1ccc(O)cc1)Nc1ccccc1[N+](=O)[O-]` belongs 4.3 µg/mL (≈ 13.6 µM); to `CC(C)(C)OC(=O)N1Cc2ccccc2C[C@H]1C(=O)NC1CCCC1`, > 51.7 µg/mL.
Regarding `CC(C)n1c(CN2CCN(Cc3ccccc3)CC2)nc2ccccc21`, the solubility (kinetic) worked out at 34.8 µg/mL (≈ 99.9 µM).
For the molecule `O=C(NC1CC1)C(Cl)c1ccccc1` (stereo not drawn), the kinetic solubility was > 31.5 µg/mL.
As for `O=C(c1[nH]ncc1[N+](=O)[O-])N1CCOCC1`, the solubility (kinetic) was > 33.9 µg/mL.
The value for `CCN(CC)C(=O)c1c(-c2ccccc2)oc2ccc(O)cc12` was 31.8 µg/mL (≈ 103 µM).
For the molecule `Nc1nc(Cl)cc(N2CCCC2)n1`, the solubility (kinetic) was > 29.8 µg/mL.
For the molecule `CCN(CC)C(=O)c1ccc(NC(=O)COc2ccccc2F)cc1`, the solubility (kinetic) is > 51.7 µg/mL.
Turning to `COc1ccc(CNC(=O)CN(C)CC(=O)Nc2ccccc2Br)cc1`, the kinetic solubility was > 63 µg/mL.
The value for `Cc1ccc(OC(C)C(=O)Nc2ccc(Cl)cn2)c([N+](=O)[O-])n1` (stereo not drawn) was 18.7 µg/mL (≈ 55.5 µM); that for `CCOC(=O)C1C(c2ccccc2)NC(=S)NC1(C)O` (stereo not drawn) was 41.6 µg/mL (≈ 141 µM); that for `O=C(O)CCCC(=O)N1CCN(c2ncccn2)CC1` was > 41.7 µg/mL.
Turning to `O=C1C(Cl)=CC(=Nc2ccc([O-])cc2)C=C1Cl.[Na+]`, the solubility (kinetic) is > 43.5 µg/mL.
The value for `O=C(c1ccccc1)N1CCN(S(=O)(=O)N2CCOCC2)CC1` was 46 µg/mL (≈ 136 µM); that for `CC(C)CC1NC(=O)N(CC(=O)Nc2cc(S(=O)(=O)N3CCOCC3)ccc2Cl)C1=O` (stereo not drawn) was 8.2 µg/mL (≈ 17.3 µM).
To `O=C(COc1ccc(F)cc1)Nc1ccc2c(c1)OCCO2` belongs 7.9 µg/mL (≈ 26 µM); to `CC(=O)c1ccc(NC(=O)C2CC2c2ccccc2)cc1` (stereo not drawn), 9.4 µg/mL (≈ 33.7 µM); to `Cc1cccc(S(=O)(=O)Nc2nc3ccccc3nc2OC(C)C)c1`, 3.1 µg/mL (≈ 8.67 µM).
The value for `COc1ccc(Cl)cc1NC(=S)Nc1ccc(Cl)cn1` was 0.2 µg/mL (≈ 0.609 µM); that for `COc1cccc(NC(=S)NC(=O)/C=C/c2ccco2)c1` was 11.2 µg/mL (≈ 37 µM); that for `Cc1ccc(Cn2ccsc2=NC(=O)COC(=O)C(C)C)cc1` was 45.3 µg/mL (≈ 136 µM).
Molecule `CC(C)(C)S(=O)(=O)c1cnc(N2CCCC2)nc1N` showed a solubility (kinetic) of 37.9 µg/mL (≈ 133 µM).
To `O=C(O)C(Cc1c[nH]c2ccccc12)N1C(=O)C2C3c4ccccc4C(c4ccccc43)[C@@H]2C1=O` (stereo partly drawn) belongs 37.1 µg/mL (≈ 80.2 µM); to `S=C(NCCc1ccccn1)NC1CC2CCC1C2` (stereo not drawn), > 41.3 µg/mL; to `Cc1cccc(C)c1N1CCN(C(=O)N2CCOCC2)CC1`, > 45.5 µg/mL.
To `O=C(NCc1cccs1)c1cnc(Cl)c(Cl)c1` belongs > 43.1 µg/mL; to `O=C(NCCCc1ccccc1)N1CCOCC1`, > 37.2 µg/mL; to `CC(C)CN(C(=O)CN(C)CC(=O)Nc1ccc(Cl)c(C(F)(F)F)c1)c1c(N)n(CC(C)C)c(=O)[nH]c1=O`, 6 µg/mL (≈ 10.7 µM).
As to `CCOc1ccc(S(=O)(=O)N(CC)CC(=O)NC2CC2)cc1`, the solubility (kinetic) was > 49 µg/mL.
For the molecule `CC(=O)Nc1cccc(NC(=O)COc2ccccc2C)c1`, the solubility (kinetic) is > 44.8 µg/mL.
In turn, `CCOc1ncccc1C(=O)NCCc1c[nH]c2ccccc12` came in with a kinetic solubility of 8.7 µg/mL (≈ 28.1 µM).
The value for `NS(=O)(=O)c1cc(C(=O)N2CCNC(=O)C2)ccc1Cl` was > 47.7 µg/mL.
Molecule `O=C(CN1C(=O)NC2(CCCc3ccccc32)C1=O)c1ccccc1F` (stereo not drawn) had a solubility (kinetic) of 10.4 µg/mL (≈ 29.5 µM).
The value for `O=C(O)CSCc1nc2ccccc2[nH]1` was 31.7 µg/mL (≈ 143 µM); that for `COc1ccc(Oc2cccc(Cl)c2CNC(=O)CSCC(=O)O)cc1` was > 59.4 µg/mL.
To `O=C(CN1N=C(c2ccccc2)CCC1=O)NCc1ccccc1` belongs > 48.2 µg/mL.
In turn, `COc1ccc(S(=O)(=O)N(C)CC(=O)NCc2ccccn2)cc1` showed a solubility (kinetic) of 37.6 µg/mL (≈ 108 µM).
On to `Cc1cccnc1NC(=O)c1ccc2c(c1)OCO2`, for which the kinetic solubility was > 38.4 µg/mL.
The value for `COc1ccccc1C1NC(=O)CCC1[N+](=O)[O-]` (stereo not drawn) was > 37.5 µg/mL.
To `O=C(O)C1CSC2(c3ccc(F)cc3)CCC(=O)N12` (stereo not drawn) belongs > 42.2 µg/mL; to `O=C(Nc1ccccc1)Nc1nc2ccccc2s1`, < 0.2 µg/mL.
For the molecule `COc1ccc(C(=O)OCC(=O)N2CCc3ccccc3C2)cc1OC`, the kinetic solubility was > 53.3 µg/mL.
For `Cc1cc(F)ccc1NC(=O)Nc1ccc2c(c1)OCO2`, the solubility (kinetic) is < 0.3 µg/mL.
Turning to `c1ccc2nc3c(nc2c1)CCCC3`, the solubility (kinetic) is > 27.6 µg/mL.
Turning to `O=C(CCc1ccccc1)NC(=S)Nc1ccc2c(c1)C(=O)OC2`, the kinetic solubility was < 0.4 µg/mL.
To `ON(Cc1c(F)cccc1Cl)Cc1c(F)cccc1Cl` belongs 0.9 µg/mL (≈ 2.83 µM).
To `COc1ccc(NC(=S)Nc2cccc(C(C)=O)c2)cc1OC` belongs > 49.6 µg/mL.
Regarding `N#CC1=C(S)N(c2ccc(F)cc2)C2(CCCCC2)NC1=O`, the solubility (kinetic) was > 47.6 µg/mL.
The value for `Cc1cc(C(=O)NC2=NCCS2)c2ccccc2n1` was > 40.7 µg/mL; that for `Cc1ccc(S(=O)(=O)N2CCOCC2)cc1C(=O)OCC(=O)NC1CCCC1` was > 61.6 µg/mL.

One may read the kinetic solubility as the concentration staying in solution when a stock, usually in DMSO, is diluted into the medium.
